# According to ChEMBL document CHEMBL3627699, “Design, synthesis and biological evaluation of 3-aryl-rhodanine benzoic acids as anti-apoptotic protein Bcl-2 inhibitors” (Bioorg Med Chem Lett, 2015):
# Columns and labels:
# [1] = molecular target: T1, Apoptosis regulator Bcl-2 (Homo sapiens, UniProt P10415); experiment: Inhibition of Bcl-2 (unknown origin) by fluorescence polarization assay
# Bcl-2-like protein 1 = Bcl-2-like protein 1 (Homo sapiens, UniProt Q07817); experiment: Inhibition of Bcl-xL (unknown origin) by fluorescence polarization assay
# [2] = molecular target: Induced myeloid leukemia cell differentiation protein Mcl-1 (Homo sapiens, UniProt Q07820); experiment: Inhibition of Mcl-1 (unknown origin) by fluorescence polarization assay
# MDA-MB-231 = experiment: Antiproliferative activity against human MDA-MB-231 cells by MTT assay; assay type: functional, cell-based
# K562 = experiment: Antiproliferative activity against human K562 cells by MTT assay; assay type: functional, cell-based
# PC-3 = experiment: Antiproliferative activity against human PC3 cells by MTT assay; assay type: functional, cell-based
# [3] = molecular target: T1, Apoptosis regulator Bcl-2; experiment: Inhibition of Bcl-2 (unknown origin) at 100 uM by fluorescence polarization assay
# Sequence of Bcl-2-like protein 1 (Q07817 whole entry): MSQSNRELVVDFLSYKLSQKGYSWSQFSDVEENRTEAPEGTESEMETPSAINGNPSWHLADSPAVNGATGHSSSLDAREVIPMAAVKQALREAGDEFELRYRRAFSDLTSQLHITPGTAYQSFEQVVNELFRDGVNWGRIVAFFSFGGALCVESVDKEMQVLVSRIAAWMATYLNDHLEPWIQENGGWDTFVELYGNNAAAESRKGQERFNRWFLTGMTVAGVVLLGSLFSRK
# T1 sequence (P10415 whole entry): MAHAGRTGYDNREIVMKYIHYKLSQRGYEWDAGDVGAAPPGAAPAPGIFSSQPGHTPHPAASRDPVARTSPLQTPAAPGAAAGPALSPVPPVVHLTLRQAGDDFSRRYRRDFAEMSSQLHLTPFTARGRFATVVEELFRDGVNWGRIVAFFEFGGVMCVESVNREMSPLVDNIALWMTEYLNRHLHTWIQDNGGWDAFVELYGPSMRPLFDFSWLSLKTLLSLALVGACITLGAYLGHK
# Sequence of Induced myeloid leukemia cell differentiation protein Mcl-1 (Q07820 whole entry): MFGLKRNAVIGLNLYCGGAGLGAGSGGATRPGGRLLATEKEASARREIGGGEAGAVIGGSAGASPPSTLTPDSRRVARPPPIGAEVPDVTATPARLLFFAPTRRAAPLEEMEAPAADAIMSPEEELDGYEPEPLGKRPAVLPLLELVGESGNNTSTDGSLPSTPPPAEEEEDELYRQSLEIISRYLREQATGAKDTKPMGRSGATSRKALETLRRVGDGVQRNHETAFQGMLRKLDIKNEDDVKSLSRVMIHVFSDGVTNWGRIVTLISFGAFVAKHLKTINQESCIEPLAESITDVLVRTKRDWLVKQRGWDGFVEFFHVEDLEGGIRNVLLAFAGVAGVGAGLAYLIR
Compound,Ki [1] [µM],other results
O=C(O)c1ccc(COc2ccc(/C=C3\SC(=S)N(c4ccc(F)cc4)C3=O)cc2)cc1,> 10,
Cc1ccccc1N1C(=O)/C(=C/c2ccc(OCC(=O)Nc3ccc(C(=O)O)cc3)cc2)SC1=S,> 10,
Cc1cccc(N2C(=O)/C(=C/c3ccc(OCC(=O)Nc4ccc(C(=O)O)cc4)cc3)SC2=S)c1,> 10,
COc1ccc(N2C(=O)/C(=C/c3ccc(OCc4ccc(C(=O)O)cc4)cc3)SC2=S)cc1,> 10,
O=C(O)c1ccc(COc2ccc(/C=C3\SC(=S)N(c4ccc([N+](=O)[O-])cc4)C3=O)cc2)cc1,> 10,
O=C(O)c1ccc(COc2ccc(/C=C3\SC(=S)N(c4c(F)cccc4F)C3=O)cc2)cc1,> 10,
O=C(COc1ccc(/C=C2\SC(=S)N(c3ccccc3)C2=O)cc1)Nc1ccc(C(=O)O)cc1,> 10,
O=C(O)c1ccc(COc2ccc(/C=C3\SC(=S)N(c4ccccc4)C3=O)cc2)cc1,> 10,
Cc1ccc(N2C(=O)/C(=C/c3ccc(OCC(=O)Nc4ccc(C(=O)O)cc4)cc3)SC2=S)cc1,> 10,
Cc1cccc(N2C(=O)/C(=C/c3ccc(OCc4ccc(C(=O)O)cc4)cc3)SC2=S)c1,> 10,
O=C(O)c1ccc(COc2ccc(/C=C3\SC(=S)N(c4ccc(Br)cc4)C3=O)cc2)cc1,0.61,Ki (Bcl-2-like protein 1): > 10 µM; Ki [2]: 700 nM; IC50 (MDA-MB-231): 19.8 µM; IC50 (K562): 43.8 µM; IC50 (PC-3): 18.9 µM
Cc1cc2c(C(C)C)c(O)c(O)c(C=O)c2c(O)c1-c1c(C)cc2c(C(C)C)c(O)c(O)c(C=O)c2c1O [GOSSYPOL],,Ki (Bcl-2-like protein 1): 0.64 µM; Ki [2]: 310 nM; IC50 (MDA-MB-231): 4.8 µM; IC50 (K562): 7.31 µM; IC50 (PC-3): 5.61 µM
O=C(O)c1ccc(COc2cccc(/C=C3\SC(=S)N(c4ccccc4)C3=O)c2)cc1,> 10,
O=C(COc1ccc(/C=C2\SC(=S)N(c3ccc([N+](=O)[O-])cc3)C2=O)cc1)Nc1ccc(C(=O)O)cc1,> 10,
COc1ccccc1N1C(=O)/C(=C/c2cccc(OCc3ccc(C(=O)O)cc3)c2)SC1=S,1.6,Ki (Bcl-2-like protein 1): > 10 µM; Ki [2]: 3700 nM
O=C(Nc1ccc(O)c(C(=O)O)c1)c1ccc(/C=C2\SC(=S)N(c3ccc([N+](=O)[O-])cc3)C2=O)cc1,> 10,
Cc1cccc(C)c1N1C(=O)/C(=C/c2ccc(OCc3ccc(C(=O)O)cc3)cc2)SC1=S,0.9,Ki (Bcl-2-like protein 1): 3.9 µM; Ki [2]: 720 nM; IC50 (MDA-MB-231): 25.6 µM; IC50 (K562): 46.6 µM; IC50 (PC-3): 25.8 µM
O=C(O)c1ccc([N+](=O)[O-])c(COc2ccc(/C=C3\SC(=S)N(c4ccccc4)C3=O)cc2)c1,9,

# Now from value to compound, other results behind:
Ki [1] [µM],Compound,other results
4.3,O=C(O)c1ccc(COc2ccc(/C=C3\SC(=S)N(c4ccc(I)cc4)C3=O)cc2)cc1,Ki (Bcl-2-like protein 1): > 10 µM; Ki [2]: 1600 nM
> 10,Cc1ccc(N2C(=O)/C(=C/c3ccc(OCc4ccc(C(=O)O)cc4)cc3)SC2=S)cc1,
> 10,O=C(O)c1ccc(COc2cccc(/C=C3\SC(=S)N(c4ccc([N+](=O)[O-])cc4)C3=O)c2)cc1,
> 10,O=C(O)c1ccc(COc2ccc(/C=C3\SC(=S)N(c4cccc(C(F)(F)F)c4)C3=O)cc2)cc1,
> 10,CC(=O)c1ccc(N2C(=O)/C(=C/c3ccc(OCc4ccc(C(=O)O)cc4)cc3)SC2=S)cc1,
0.5,Cc1ccc(S(=O)(=O)NC(=O)[C@H](Cc2ccccc2)N2C(=O)/C(=C/c3ccc(-c4ccccc4)cc3)SC2=S)cc1,Ki (Bcl-2-like protein 1): 0.57 µM; Ki [2]: 290 nM; IC50 (MDA-MB-231): > 30 µM; IC50 (K562): 32.8 µM; IC50 (PC-3): > 30 µM
10,COc1ccccc1N1C(=O)/C(=C/c2ccc(OCC(=O)Nc3ccc(C(=O)O)cc3)cc2)SC1=S,
3.1,Cc1ccccc1N1C(=O)/C(=C/c2cccc(OCc3ccc(C(=O)O)cc3)c2)SC1=S,Ki (Bcl-2-like protein 1): > 10 µM; Ki [2]: 3200 nM
> 10,O=C(O)c1ccc(/C=C2\SC(=S)N(c3ccccc3)C2=O)cc1,inhibition [3]: 18%
2,COc1ccccc1N1C(=O)/C(=C/c2ccc(OCc3ccc(C(=O)O)cc3)cc2)SC1=S,Ki (Bcl-2-like protein 1): > 10 µM; Ki [2]: 3900 nM
9.6,O=C(O)c1ccc(COc2ccc(/C=C3\SC(=S)N(c4cccc([N+](=O)[O-])c4)C3=O)cc2)cc1,
3.1,O=C(O)c1ccc([N+](=O)[O-])c(COc2ccc(/C=C3\SC(=S)N(c4ccc([N+](=O)[O-])cc4)C3=O)cc2)c1,
> 10,O=C(Nc1ccc(O)c(C(=O)O)c1)c1ccc(/C=C2\SC(=S)N(c3ccccc3)C2=O)cc1,
7.6,Cc1cccc(C)c1N1C(=O)/C(=C/c2ccc(OCC(=O)Nc3ccc(C(=O)O)cc3)cc2)SC1=S,
> 10,O=C(O)c1ccc(COc2ccc(/C=C3\SC(=S)N(c4ccc(Cl)cc4)C3=O)cc2)cc1,
> 10,O=C(O)c1ccc(COc2ccc(/C=C3\SC(=S)N(Cc4ccc(F)cc4)C3=O)cc2)cc1,
